From patent publication US8877773B2, “Methods for treating chronic obstructive pulmonary disease” (Indiana University Research and Technology Corporation, priority 2009, dated 2014)
Entries after “also recorded” stand apart in the source; their conditions may differ.

Experiments:
[1] = test system: rats exposed to hypercarbic gas; experiment: Hypercarbic gas (20% CO2) challenge: MAP, HR, locomotor activity, fecal pellets; type: in vivo, rat
Method: Prior to surgery, rats were anesthetised with a nose cone connected to an isoflurane system (MGX Research Machine; Vetamic, Rossville Ind., USA) during the surgery. […] Briefly, cardiovascular responses were measured by a femoral arterial line connected to a telemetric probe that contained a pressure transducer [Cat. no. C50-PXT, Data Sciences International (DSI), St. Paul, Minn., USA]. DSI dataquest software was used to monitor and record MAP and HR. For the duration of each experiment, MAP and HR were recorded continuously in freely moving conscious rats. Data were analyzed during the period 5 min prior to, 5 min during, and 5 min following the gas challenges. The data reported are changes in HR and MAP, expressed in 1 min bins, relative to the average of the baseline measurement (t−5 min to t−1 min) from each rat.
Flow cages (12 in. width×12 in. height×24 in. length) were custom built using Plexiglas®. When the lid of the cage was latched, gases could only enter the cage through an inlet connector (for the gas infusion) and could only exit the cage through an outlet connector. The gas flow into the cages was controlled using a 2-stage regulator (Praxair, Inc., Danbury, Conn., USA) at a pressure of 0.6 Bar.
On day 1, rats (n=3/group) were selected from their home cages and placed into experimental cages containing atmospheric air. […] Fecal pellets were counted in cages at the end of gas challenges. In order to assess anxiety-like behavioural responses following exposure to hypercarbic gas, rats were immediately transferred to an adjacent room and place in the center square of an open-field box for a 5 min test. On day 2, the experiment was repeated, but the treatments were reversed for each rat. For instance, rats that received atmospheric gas challenge on day 1 received the hypercapnic gas challenge on day 2.
All rats received hypercarbic gas infusions as described in detail in Experiment 11. […] Blood pressure, heart rate, locomotor activity, number of fecal pellets and anxiety-like behavior were assessed as described in Experiment 11.
Dependent variables for analyses of cardiovascular responses (HR, MAP) and locomotor activity were analysed using a […], using gas infusion as the between-subjects factor and time as a within-subjects factor. Dependent variables for the number of fecal pellets and open-field anxiety test (i.e., time spent in each section, line crossings) were analysed using a one-way ANOVA with gas infusion in Experiment 11 and drug treatment in Experiment 12 as the between-subjects factors. […] Within-subjects comparisons were also made on the MAP and HR measures using a Dunnett's test for multiple comparisons with a single control using the 5 Min baseline measurement as the control. The alpha level was set at 0.05 in all cases.

[2] = test system: panic-prone (1-AG treated) rats; experiment: Defensive burying (defensive shock) test after NaLac challenge in panic-prone rats; type: in vivo, rat; details: 1-AG+NaLac rats
Method: The defensive burying test is a validated test of experimental anxiety and defensive-like behavior in rats. For four consecutive days before defensive burying test (days 3, 4, 5 and 6 post 1-AG onset), rats were acclimated to the testing apparatus by placing them for 10 min in the testing cage (a polycarbonate rat housing cage, 30.5 cm width×30.5 cm height×61 cm length) with 2.5 cm of bedding covering the floor and a small hole centered on a short dimension of the cage 2.5 cm above the bedding to accommodate the deactivated shock probe. The shock probe was 1 cm in diameter and extended 6 cm into the cage. Along the entire length of the exposed probe, 2 un-insulated wires were wrapped in parallel (not touching) so that the rat could not touch the probe without getting a shock. […] The shock intensity was set at 0.7 mA for the entire duration of testing so that the rat received a shock whenever the prod was contacted with its forepaws or snout. […] Behavioral assessments were made using software (ODLog Macropod Software for Windows, version 2.5.2) with different keystrokes coupled to each defensive behavior to accurately measure incidence and duration of each. The repertoire of behavioral reactions during a defensive burying test is well delineated and catalogued in rats. These behaviors include: 1) burying behavior, defined as duration spent pushing, shoveling, flicking and digging sawdust towards and around the prod with rapid movements of the snout and forepaws; 2) Freezing, defined as immobility with the body motionless; 3) probe exploration, defined as time spent on half of cage with probe; 4) rearing, defined as raising the body on the hind limbs in a vertical position; 5) ambulations, defined as number of times rat crossed from side of cage with probe to other; and also 5) grooming, defined as face washing, scratching, tail biting and licking of the body.
On day 1 adult male Sprague-Dawley rats (n=3/group) were anaesthetized and had osmotic minipumps (previously filled with 1-AG) stereotaxically implanted unilaterally into the DMH/PeF. […] Behavioral assessments were made using software (ODLog Macropod Software for Windows, version 2.5.2) with different keystrokes coupled to each defensive behavior to accurately measure incidence and duration of each.

[3] = test system: panic-prone (1-AG treated) rats; experiment: Sodium lactate (NaLac) challenge in panic-prone rats: open field test; type: in vivo, rat; details: 30 mg/kg i.p. 30 min prior to NaLac, experiment 5
Method: The open-field arena covered an area of 0.9 m×0.9 m, with 0.4 m high walls. The open-field arena was divided into a 6×6 grid of equally-sized squares using black tape (36 total squares) with 4 squares forming the centre; 12 squares forming the middle perimeter; and 20 squares forming the outer perimeter. The test started by placing a rat in the centre. The behavior of each rat in the open-field arena was recorded on video and scored afterwards by an observer blind to the experimental treatment of each rat. Time spent in each region of the open-field was recorded.
In experiments 4-6, rats were made panic vulnerable with 1-AG. […] In experiment 5, baseline in an open field (OF) behavior test of anxiety was assessed (n=8) prior to 1-AG infusions. […] In experiment 7, control rats (no 1-AG or NaLac treatment) were assessed in a SI test.
All adult male Sprague-Dawley rats were anesthetized and surgically implanted with telemetrical probes to measure cardiovascular activity prior to and during lactate infusions. After a 3 day recovery, baseline open field behavior was assessed (n=8), then rats were anaesthetized and had osmotic minipumps (previously filled with 1-AG) stereotaxically implanted unilaterally into the DMH. […] Immediately following the lactate challenge, the rats were assessed for anxiety using the open field test.

[4] = in vivo; cited from earlier work
[5] = 20% CO2, 30 mg/kg i.p. 30 min prior

## Cc1nc2ccc(NC(=O)Nc3ccnc4cccnc34)cc2o1 [SB334867, N-(2-Methyl-6-benzoxazolyl)-N′-1,5-naphthyridin-4-yl urea]
[1]; 20% CO2/normoxic gas 5 min, 30 mg/kg i.p. 30 min prior
  hypercarbic gas-induced changes in MAP (pressor response): attenuated
[1]; 20% CO2/normoxic gas 5 min, 30 mg/kg i.p. 30 min prior, 30 mg/kg
  hypercarbic gas-induced bradycardia: without altering; also recorded: had no effect
[1]; [5]
  hypercarbic gas-induced increase in numbers of fecal pellets: attenuated
  locomotor responses over time prior to, during or after hypercarbic gas: Neither the vehicle nor SB334867 treated rats had a change in locomotor responses
[1]; baseline, 30 mg/kg i.p., vs vehicle-treated rats
  locomotor activity prior to hypercarbic gas infusion: higher
[2]; 30 mg/kg i.p.
  grooming in defensive burying test: No differences were detected
  rearing in defensive burying test: No differences were detected
  time spent near probe in defensive burying test: No differences were detected
[2]; 30 mg/kg i.p. 30 min prior, 30 mg/kg
  NaLac-induced freezing (immobility) in defensive burying test: completely blocked; also recorded: blocks
[2]; 30 mg/kg i.p., sedation indicator, 30 mg/kg
  number of times crossed line dividing halves of test cage (mid-line crossings): No differences were detected
[3]
  anxiety-like responses (decreased time spent in center of open field) after NaLac challenge: attenuated
[4]
  blood-brain barrier passage: crosses the blood-brain barrier
